Assay results: publication PMC10814725, “In Vitro Anti-Inflammatory Study of Limonoids Isolated from Chisocheton Plants” (Current Issues in Molecular Biology, 2024)
Where two headings read alike, the source gives them in different places.

Key:
[1] = Cell viability by CCK-8, THP-1 cells; type: cell-based; conditions: human, PMA-differentiated THP-1 cells; for CC50 at 18 h: concentration causing 50% cytotoxicity against THP-1 cells
Procedure: (§1) The viability of HEK-Blue^TM hTLR4, […], and THP-1 cells was evaluated using the Dojindo Cell Counting Kit-8 (CCK-8) according to the manufacturer’s instructions. The viability of HEK-Blue^TM hTLR4 and THP-1 cells was assessed under identical conditions to the corresponding assay treatments. HEK-Blue^TM hTLR4 cells (2 × 10^4 cells/well) were seeded in 96-well plates and serum-starved for 24 h at 37 °C in a 5% CO2 atmosphere. After incubation, the culture medium was aspirated, and the cells were washed with saline. High-glucose D-MEM supplemented with 0.1% FBS and 1% penicillin–streptomycin was added and pretreated with or without the 17 limonoids at a concentration of 20 µM for 1 h, followed by LPS addition at a concentration of 10 ng/mL. After 18 h of incubation, a 10% (v/v) CCK-8 solution was added to each well and incubated at 37 °C for 1 h, and cell viability was calculated.
The THP-1 cells at 5 × 10^4 cells/well were differentiated for 24 h in the presence of PMA (0.5 μM solution in medium). After 24 h of incubation, the culture medium was removed from the 96-well plate and the cells were washed with PBS. Fresh RPMI-1640 medium supplemented with 0.1% FBS and 1% penicillin–streptomycin was added to each well and incubated at 37 °C for overnight. The cells were pretreated with 17 limonoids at the corresponding concentration for 1 h followed by the addition of LPS (10 ng/mL) and incubated at 37 °C for 18 h. Furthermore, CCK-8 solution was added to each well with a final concentration was 10% (v/v) and incubated at 37 °C. After 1 h, the absorbance of each well was measured at […] by using a microplate reader (BioTek Cytation 5 Cell Imaging Multimode Reader). Cell viability was calculated using the following formula: % Cell viability=(Absorbance of sample−Absorbance of Background)/(Absorbance of control−Absorbance of Background)×100 where the absorbance of the sample is the absorbance of cells treated by the compound with or without LPS, the absorbance of the control is the absorbance of LPS (−)-treated cells, and the background absorbance is the absorbance of a well containing only the medium. The results were expressed as 100% cell viability.

IL-6 = assay: ELISA of IL-6 production in LPS-stimulated THP-1 cells; type: cell-based, human; conditions: for IC50: Homo sapiens, THP-1, 18 h, LPS-stimulated (10 ng/mL) THP-1 cells, 1, 5, 10, 20 µM, 18 h; for IL-6 SI (selectivity index, CC50/IC50): THP-1 CC50 / IL-6 IC50
Procedure: (§2) The logarithmic growth phase of THP-1 cells was achieved by seeding in 96-well plates at a density of 5 × 10^4 cells/well and differentiated for 24 h in the presence of PMA (0.5 μM solution in medium). After 24 h of incubation, the culture medium was removed from the 96-well plate and the cells were washed with PBS. […] The cells were pretreated with 17 limonoids at the corresponding concentration for 1 h, followed by the addition of LPS (10 ng/mL) and then incubation at 37 °C for 18 h. Finally, 50 μL of each culture supernatant solution was taken to determine the concentrations of IL-6, MCP-1, and IL-1β using the corresponding commercially available human ELISA kits following the manufacturer’s instructions. The analyte concentration in the supernatant was measured in pg/mL, and the inhibition level was expressed as a fold change compared to the LPS (−) control group. To determine the IC50 value, the dose-response data were normalized to the LPS-stimulated-only group, and the percentage of inhibition was calculated using the following formula: % Inhibition=(Absorbance of LPS+ control−Absorbance of compound treatment with LPS)/(Absorbance of LPS+ control−Absorbance of LPS− control)×100
(§3) Furthermore, the % inhibition data were interpolated into linear equations to determine the IC50 values.

phosphorylated-p38 MAPK = assay: Western blotting of phosphorylated-p38 MAPK in LPS-stimulated THP-1 cells; type: cell-based, human; conditions: 10 µM, LPS 10 ng/mL, 18 h, compared to LPS (+) group
Procedure: THP-1 cells were seeded at a density of 1 × 10^6 cells/well in 24-well plates. The cells were then pretreated with a concentration of 10 µM of compounds 3, 5, 9, or 15 for 1 h. Subsequently, LPS (10 ng/mL) was added to the cells, which were incubated for 18 h. The protein concentrations were determined using a bicinchoninic acid (BCA) assay kit.
For Western blot analysis, proteins were separated by SDS-PAGE and transferred onto a polyvinylidene fluoride (PVDF) membrane. The membranes were blocked with 2.5% BSA in Tris-buffered saline-Tween (TBST) for 1 h at room temperature. After three washes with TBST, the membranes were incubated with a diluted primary antibody solution (anti-phosphorylated-p38 MAPK or anti-p38 MAPK) at a 1:1000 dilution for 1 h at room temperature. After three washes with TBS-T, the membranes were incubated with a secondary antibody conjugated to horseradish peroxidase (HRP; 1:4000 dilution) for 30 min at room temperature and subsequently detected by chemiluminescence. Finally, the bands were visualized and quantified using an ImageQuant 800 GxP system (Cytiva, MA, USA). The results were expressed as ratios relative to the reference protein β-actin.

[2] = system: TNF-α, IL-6, IL-1β, and MCP-1; assay: ELISA of pro-inflammatory markers overall (TNF-α, IL-6, IL-1β, MCP-1) in LPS-stimulated THP-1 cells; type: cell-based; conditions: Homo sapiens, read-out: Overall IC50 values for the evaluated pro-inflammatory markers
Procedure: (§4) The logarithmic growth phase of THP-1 cells was achieved by seeding in 96-well plates at a density of 5 × 10^4 cells/well and differentiated for 24 h in the presence of PMA (0.5 μM solution in medium). After 24 h of incubation, the culture medium was removed from the 96-well plate and the cells were washed with PBS. Fresh RPMI-1640 medium supplemented with 0.1% FBS and 1% Penicillin–Streptomycin was added to each well and incubated at 37 °C overnight. The cells were pretreated with 17 limonoids at the corresponding concentration for 1 h, followed by the addition of LPS (10 ng/mL) and then incubation at 37 °C for 18 h. Finally, 50 μL of each culture supernatant solution was taken to determine the concentrations of IL-6, MCP-1, and IL-1β using the corresponding commercially available human ELISA kits following the manufacturer’s instructions. The analyte concentration in the supernatant was measured in pg/mL, and the inhibition level was expressed as a fold change compared to the LPS (−) control group. To determine the IC50 value, the dose-response data were normalized to the LPS-stimulated-only group, and the percentage of inhibition was calculated using the following formula: % Inhibition=(Absorbance of LPS+ control−Absorbance of compound treatment with LPS)/(Absorbance of LPS+ control−Absorbance of LPS− control)×100
as §3

[3] = Cell viability by CCK-8, HEK-Blue hTLR4 cells; type: cell-based; conditions: human
Procedure: as §1

TNF-α = assay: ELISA of TNF-α production in LPS-stimulated THP-1 cells; type: cell-based, human; conditions: for IC50: LPS-stimulated (10 ng/mL) THP-1 cells, 1, 5, 10, 20 µM, 18 h, read-out: TNF-α IC50; for TNF-α SI (selectivity index, CC50/IC50): THP-1 CC50 / TNF-α IC50
in vitro = type: cell-based; conditions: mouse
Procedure: as §1

MCP-1 = assay: ELISA of MCP-1 production in LPS-stimulated THP-1 cells; type: cell-based, human; conditions: 10 µM, compared to LPS (+)-stimulated group, THP-1 cells
Procedure: as §2, §3

IL-1β = assay: ELISA of IL-1β production in LPS-stimulated THP-1 cells; type: cell-based, human; conditions: 10 µM, compared to LPS (+)-stimulated group
Procedure: as §4, §3

[4] = system: TLR4-dependent NF-kB activation in HEK-Blue hTLR4 cells; assay: SEAP reporter gene assay, antagonist effect on LPS-stimulated TLR4-dependent NF-κB activation; type: cell-based, human; conditions: 20 µM, LPS 10 ng/mL, 18 h, vs. LPS stimulated-only group
Procedure: The SEAP Reporter Gene Assay was conducted as previously described. HEK-Blue^TM hTLR4 cells (2 × 10^4 cells/well) were seeded in 96-well plates and were serum-starved for 24 h at 37 °C in a 5% carbon dioxide atmosphere. After incubation, the culture medium was aspirated, and the cells were washed with saline. High-glucose D-MEM supplemented with 0.1% FBS and 1% penicillin-streptomycin was added and treated with or without the 17 limonoids at a concentration of 20 µM for 1 h, followed by LPS addition at a concentration of 10 ng/mL for the LPS-stimulated group. After incubation at 37 °C for 18 h, the supernatants were collected and PNPP in PBS solution (0.8 mM, 100 μL) was added, followed by 4 h of shading at 25 °C. The optical density (OD) of the samples was measured at 405 nm using a microplate reader (BioTek Cytation 5 Cell Imaging Multimode Reader, Agilent Technologies, Santa Clara, CA, USA).

[5] = LPS 10 ng/mL, read-out: Viability Cell (%) THP-1 LPS-Induced (10 ng/mL)
[6] = without LPS, read-out: Viability Cell (%) THP-1 Without LPS
[7] = Viability Cell (%) HEK-Blue hTLR4 LPS-Induced (10 ng/mL)
[8] = Viability Cell (%) HEK-Blue hTLR4 Without LPS
[9] = 10 µM, compared to LPS (+)-stimulated group, THP-1 cells

| Compound | viability at 18 h, 10 µM [1, 5] | viability at 18 h, 10 µM [1, 6] | CC50 at 18 h [1] | IC50 (IL-6) | Effect on p-p38 MAPK levels (phosphorylated-p38 MAPK) | IC50 [2] | viability at 18 h, 20 µM [3, 7] | viability at 18 h, 20 µM [3, 8] | IC50 (TNF-α; Homo sapiens, THP-1, 18 h) | TNF-α SI (selectivity index, CC50/IC50) (TNF-α) | viability at 5 µM (in vitro) | viability at 10 µM (in vitro) | viability at 20 µM (in vitro) | Effect on MCP-1 level (MCP-1) | Effect on IL-6 level (IL-6; [9]) | IL-6 SI (selectivity index, CC50/IC50) (IL-6) | Effect on IL-1β level (IL-1β) | Effect on TNF-α level (TNF-α; [9]) | IC50 (TNF-α) | Inhibition of SEAP release (NF-κB activity inhibition) [4] |
| --- | --- | --- | --- | --- | --- | --- | --- | --- | --- | --- | --- | --- | --- | --- | --- | --- | --- | --- | --- | --- |
| CC(=O)O[C@H]1[C@@H](OC(C)=O)[C@]2(C)[C@H](CC[C@@]3(C)[C@H](c4ccoc4)C[C@H]4O[C@@]423)[C@@]2(C)C=CC(=O)C(C)(C)[C@H]12 [Compound 4, 6α-(acetoxy)-14β,15β-epoxyazadirone] | > 99.9% | > 99.9% | 38 µM | 1.64 µM | significantly suppressed | < 20 µM | > 99.9% | > 99.9% | 5.6 µM | 6.78 | 85 ± 5.66% | 85.9 ± 5.34% | 82.4 ± 1.15% | – | – | – | – | – | – | – |
| CC(=O)O[C@@H]1[C@H](O)[C@H]2C(C)(C)C(=O)C=C[C@]2(C)[C@H]2CC[C@]3(C)C(=CC[C@H]3c3ccoc3)[C@]12C [Compound 9, nimonol] | 83.9 ± 7.6% | > 99.9% | 107 µM | – | significantly suppressed | < 20 µM | 74.8 ± 6.22% | > 99.9% | < 3 µM | 49.92 | 93.8 ± 1.86% | 89.9 ± 2.44% | 79.4 ± 10.2% | significantly reduced | significantly reduced | 94.98 | significantly reduced | significantly reduced | 2.15 µM | – |
| CC(=O)O[C@@H]1C[C@]2(C)C(=CC[C@H]2c2ccoc2)[C@@]2(C)[C@H]1[C@@]1(C)C=CC(=O)C(C)(C)[C@@H]1C[C@H]2OC(C)=O [Compound 11, 11α-acetoxyazadirone] | > 99.9% | > 99.9% | – | – | – | – | 9.84 ± 7.34% | 52.6 ± 4.74% | – | – | 90.1 ± 7.88% | 79 ± 1.58% | 78.9 ± 2.21% | – | – | – | – | – | – | significantly inhibited SEAP release |
| CC(=O)O[C@@H]1C[C@H]2C(C)(C)C(=O)C=C[C@]2(C)[C@H]2CC[C@@]3(C)[C@H](c4ccoc4)C[C@H]4O[C@]43[C@@]21C [Compound 13, trichilenone acetate] | > 99.9% | 90.8 ± 3.23% | – | – | – | – | > 99.9% | 92.4 ± 10.6% | – | – | > 99.9% | > 99.9% | 91.9 ± 4.37% | – | – | – | – | – | – | significantly inhibited SEAP release |
| CC(=O)O[C@@H]1C[C@H]2C(C)(C)C(=O)C=C[C@]2(C)[C@H]2CC[C@]3(C)C(=CC[C@H]3C3CCOC3=O)[C@@]21C (stereo partly shown) [Compound 15, pentandricine B] | > 99.9% | > 99.9% | 96.6 µM | 7.37 µM | significantly suppressed | < 20 µM | 84.4 ± 18.7% | > 99.9% | 16.4 µM | 5.88 | 92.8 ± 1.79% | 91.9 ± 3.59% | 90.9 ± 4.95% | – | – | 13.11 | – | – | – | – |
| CC1(C)C(=O)C=C[C@]2(C)[C@H]3CC[C@]4(C)C(=CC[C@H]4C4CCOC4=O)[C@]3(C)[C@H](O)C[C@@H]12 (stereo partly shown) [Compound 16, pentandricine C] | > 99.9% | 90.4 ± 7.6% | 110 µM | 5.69 µM | significantly suppressed | < 20 µM | > 99.9% | > 99.9% | – | – | 91.8 ± 3.18% | 81.3 ± 7.05% | 89.4 ± 7.08% | – | – | 19.40 | – | – | – | – |
